Experiments:
Assay in all cases: CDK enzymology experiment in vitro, capillary mobility shift assay (MSA)
Format in all cases: biochemical
[1] = biological target: T1, CDK1 (Homo sapiens, UniProt P06493); details: read-out: CDK1 (nM) inhibitory IC50
T1 construct: purchased Carna Company
In short: (§1)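 Recombinant kinases tested against peptide substrates in 1× kinase buffer, with compound added as a 100-fold DMSO stock. Top concentration 1, 10 or 30 μM, 3-fold dilutions over 10 points, in duplicate. Substrate conversion read by Caliper EZ Reader, normalised to no-enzyme and no-compound controls, and IC50 fitted with a variable-slope log(inhibitor)–response model.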

[2] = biological target: T2, CDK2 (Homo sapiens, UniProt P24941); details: read-out: CDK2 (nM) inhibitory IC50
T2 construct: purchased Carna Company
In short: as §1

[3] = biological target: T3, CDK4 (Homo sapiens, UniProt P11802); details: read-out: CDK4 (nM) inhibitory IC50
T3 construct: purchased Carna Company
In short: as §1

[4] = biological target: T4, CDK7 (Homo sapiens, UniProt P50613); details: read-out: CDK7 (nM) inhibitory IC50
T4 construct: purchased Carna Company
In short: as §1

[5] = biological target: T5, CDK9 (Homo sapiens, UniProt P50750); details: read-out: CDK9 (nM) inhibitory IC50
T5 construct: purchased Carna Company
In short: as §1

[6] = biological target: T6, CDK6 (Homo sapiens, UniProt Q00534); details: read-out: CDK6 (nM) inhibitory IC50
T6 construct: purchased Carna Company
T6 sequence (Q00534 whole entry): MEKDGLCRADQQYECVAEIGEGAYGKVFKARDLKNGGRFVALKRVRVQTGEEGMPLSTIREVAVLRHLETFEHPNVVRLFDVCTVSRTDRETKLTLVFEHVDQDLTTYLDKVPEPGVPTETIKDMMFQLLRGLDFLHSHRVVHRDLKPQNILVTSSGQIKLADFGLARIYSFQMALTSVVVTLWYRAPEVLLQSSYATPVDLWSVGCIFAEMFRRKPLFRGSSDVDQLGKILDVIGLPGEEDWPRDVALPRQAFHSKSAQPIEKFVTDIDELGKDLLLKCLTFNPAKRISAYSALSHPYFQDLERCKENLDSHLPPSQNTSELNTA
T6 sequence (P30281 whole entry partner): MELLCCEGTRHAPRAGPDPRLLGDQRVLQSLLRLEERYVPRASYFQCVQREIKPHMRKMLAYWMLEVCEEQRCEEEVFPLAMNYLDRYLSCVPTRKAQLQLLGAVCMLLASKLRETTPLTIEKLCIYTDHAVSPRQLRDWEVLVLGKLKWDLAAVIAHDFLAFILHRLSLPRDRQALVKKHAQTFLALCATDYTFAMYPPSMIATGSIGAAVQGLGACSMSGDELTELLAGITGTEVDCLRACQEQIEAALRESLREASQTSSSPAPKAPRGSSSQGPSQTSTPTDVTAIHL

T3 sequence (P11802 whole entry): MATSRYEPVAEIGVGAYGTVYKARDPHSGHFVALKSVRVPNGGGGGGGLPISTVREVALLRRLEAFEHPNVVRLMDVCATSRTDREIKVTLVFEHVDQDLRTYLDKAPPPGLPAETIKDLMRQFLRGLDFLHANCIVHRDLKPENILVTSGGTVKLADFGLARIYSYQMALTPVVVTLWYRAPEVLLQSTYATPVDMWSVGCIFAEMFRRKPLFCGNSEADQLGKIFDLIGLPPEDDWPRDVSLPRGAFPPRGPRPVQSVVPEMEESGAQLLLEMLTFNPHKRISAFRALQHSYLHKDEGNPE
T3 sequence (P30281 whole entry partner): as the sequence (P30281 whole entry partner) above
T4 sequence (P50613 whole entry): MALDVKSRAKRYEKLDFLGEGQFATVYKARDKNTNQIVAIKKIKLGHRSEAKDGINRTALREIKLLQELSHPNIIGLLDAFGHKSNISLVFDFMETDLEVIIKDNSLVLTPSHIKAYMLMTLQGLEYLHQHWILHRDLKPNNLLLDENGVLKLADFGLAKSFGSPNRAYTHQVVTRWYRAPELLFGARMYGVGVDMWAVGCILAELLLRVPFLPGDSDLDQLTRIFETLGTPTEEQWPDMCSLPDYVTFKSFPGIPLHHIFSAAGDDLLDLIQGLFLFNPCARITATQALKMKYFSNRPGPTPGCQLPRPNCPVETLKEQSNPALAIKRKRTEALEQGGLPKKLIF
T4 sequence (P51946 whole entry partner): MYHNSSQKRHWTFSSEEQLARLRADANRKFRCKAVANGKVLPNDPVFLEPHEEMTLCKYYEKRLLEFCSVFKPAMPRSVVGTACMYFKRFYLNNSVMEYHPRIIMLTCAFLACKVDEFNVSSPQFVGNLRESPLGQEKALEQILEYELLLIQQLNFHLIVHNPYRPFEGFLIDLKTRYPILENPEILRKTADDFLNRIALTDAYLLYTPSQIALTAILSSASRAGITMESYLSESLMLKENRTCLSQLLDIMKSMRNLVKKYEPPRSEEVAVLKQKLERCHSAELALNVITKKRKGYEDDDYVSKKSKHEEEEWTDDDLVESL
T4 sequence (P51948 whole entry partner): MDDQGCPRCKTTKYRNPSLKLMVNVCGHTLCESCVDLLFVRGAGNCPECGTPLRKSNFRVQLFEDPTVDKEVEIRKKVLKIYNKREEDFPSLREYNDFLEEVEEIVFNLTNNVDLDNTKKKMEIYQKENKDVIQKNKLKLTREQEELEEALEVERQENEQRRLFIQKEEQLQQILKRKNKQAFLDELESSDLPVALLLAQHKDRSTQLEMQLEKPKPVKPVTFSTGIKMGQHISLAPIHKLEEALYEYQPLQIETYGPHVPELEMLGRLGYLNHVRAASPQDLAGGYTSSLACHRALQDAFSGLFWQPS
T5 sequence (P50750 whole entry): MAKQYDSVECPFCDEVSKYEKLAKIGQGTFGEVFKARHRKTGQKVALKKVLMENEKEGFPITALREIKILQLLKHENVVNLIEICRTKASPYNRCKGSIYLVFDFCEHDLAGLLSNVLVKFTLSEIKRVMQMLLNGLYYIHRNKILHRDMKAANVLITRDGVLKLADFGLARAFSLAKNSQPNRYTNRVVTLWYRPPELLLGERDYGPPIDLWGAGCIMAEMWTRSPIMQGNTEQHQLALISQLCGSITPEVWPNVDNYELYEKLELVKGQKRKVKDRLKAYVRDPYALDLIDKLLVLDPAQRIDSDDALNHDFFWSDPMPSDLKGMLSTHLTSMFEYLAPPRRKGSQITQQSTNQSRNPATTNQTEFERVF
T5 sequence (O60563 whole entry partner): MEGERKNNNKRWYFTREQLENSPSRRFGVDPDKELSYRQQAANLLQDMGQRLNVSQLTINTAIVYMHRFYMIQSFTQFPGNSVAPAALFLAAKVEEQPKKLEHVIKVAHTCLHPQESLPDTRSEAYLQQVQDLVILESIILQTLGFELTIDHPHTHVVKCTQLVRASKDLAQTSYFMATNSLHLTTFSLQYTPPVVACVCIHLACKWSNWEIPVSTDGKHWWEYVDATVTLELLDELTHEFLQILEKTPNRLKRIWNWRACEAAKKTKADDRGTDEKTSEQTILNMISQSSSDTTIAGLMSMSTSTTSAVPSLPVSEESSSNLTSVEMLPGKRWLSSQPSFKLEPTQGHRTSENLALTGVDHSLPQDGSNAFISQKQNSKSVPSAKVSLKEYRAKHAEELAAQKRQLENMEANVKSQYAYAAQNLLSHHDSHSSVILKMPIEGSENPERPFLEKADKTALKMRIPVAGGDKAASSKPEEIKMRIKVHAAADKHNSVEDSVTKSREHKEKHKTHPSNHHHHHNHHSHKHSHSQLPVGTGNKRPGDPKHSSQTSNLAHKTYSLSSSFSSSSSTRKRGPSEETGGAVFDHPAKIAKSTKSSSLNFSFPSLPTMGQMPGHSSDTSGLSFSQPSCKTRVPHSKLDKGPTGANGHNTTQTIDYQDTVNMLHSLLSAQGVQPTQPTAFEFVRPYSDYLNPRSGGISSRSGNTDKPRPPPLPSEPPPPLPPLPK
T1 sequence (P06493 whole entry): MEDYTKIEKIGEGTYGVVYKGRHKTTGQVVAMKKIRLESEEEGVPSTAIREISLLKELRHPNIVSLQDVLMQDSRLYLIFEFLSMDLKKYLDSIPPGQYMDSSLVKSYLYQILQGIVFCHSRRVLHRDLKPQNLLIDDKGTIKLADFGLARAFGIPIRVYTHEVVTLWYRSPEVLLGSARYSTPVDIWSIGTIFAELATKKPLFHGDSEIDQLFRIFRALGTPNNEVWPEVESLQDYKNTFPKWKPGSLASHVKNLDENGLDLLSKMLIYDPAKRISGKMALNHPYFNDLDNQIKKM
T1 sequence (P14635 whole entry partner): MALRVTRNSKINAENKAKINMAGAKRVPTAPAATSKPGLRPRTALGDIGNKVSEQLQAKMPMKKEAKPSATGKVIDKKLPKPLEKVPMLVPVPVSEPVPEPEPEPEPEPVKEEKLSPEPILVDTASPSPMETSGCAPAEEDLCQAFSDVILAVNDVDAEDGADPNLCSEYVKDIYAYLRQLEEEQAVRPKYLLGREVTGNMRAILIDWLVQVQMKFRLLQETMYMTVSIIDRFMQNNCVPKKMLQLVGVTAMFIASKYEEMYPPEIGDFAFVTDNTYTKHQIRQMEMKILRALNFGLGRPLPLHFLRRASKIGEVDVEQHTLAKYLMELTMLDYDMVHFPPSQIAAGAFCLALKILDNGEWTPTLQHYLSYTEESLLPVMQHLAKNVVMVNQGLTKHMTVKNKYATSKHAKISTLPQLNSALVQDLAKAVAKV

Row | Compound | IC50 [1] [nM] | IC50 [2] [nM] | IC50 [3] [nM] | IC50 [4] [nM] | IC50 [5] [nM] | IC50 [6] [nM]
1 | N#Cc1cnc(NC2CCN(S(=O)(=O)c3ccc(C4=CCNCC4)cc3)CC2)nc1NC1CCCC1 [Example 15, 4-(Cyclopentylamino)-2-((1-((4-(1,2,3,6-tetrahydropyridin-4-yl)phenyl)sulfonyl)piperidin-4-yl)amino)pyrimidine-5-carbonitrile] | 10 to 50 | 0.5 to 2.5 | 0.5 to 2.5 | 10 to 50 | 100 to 1000 | 0.5 to 2.5
2 | Cn1cc(S(=O)(=O)N2CCC(Nc3ncc(C#N)c(N[C@H]4CCOC4)n3)CC2)cn1 [Compound 44] | 100 to 1000 | 2.5 to 10 | 50 to 100 | 100 to 1000 | > 1000 | 50 to 100
3 | Cn1cc(S(=O)(=O)N2CCC(Nc3ncc(C(F)(F)F)c(O[C@H]4CCOC4)n3)CC2)cn1 [Example 7, (S)—N-(1-((1-Methyl-1H-pyrazol-4-yl)sulfonyl)piperidin-4-yl)-4-((tetrahydrofuran-3-yl)oxy)-5-(trifluoromethyl)pyrimidin-2-amine] | 10 to 50 | 0.5 to 2.5 | 10 to 50 | 10 to 50 | 100 to 1000 | 10 to 50
4 | Cn1cnc(S(=O)(=O)N2CCC(Nc3ncc(C#N)c(NC4CCCC4)n3)CC2)c1 [Compound 34] | 10 to 50 | 0.5 to 2.5 | 2.5 to 10 | 100 to 1000 | 100 to 1000 | 10 to 50
5 | O=S(=O)(c1ccc(N2CCNC(C(F)(F)F)C2)cc1)N1CCC(Nc2ncc(C(F)(F)F)c(O[C@H]3CCOC3)n2)CC1 (stereo partly drawn) [Compound 147] | 2.5 to 10 | 0.5 to 2.5 | 0.5 to 2.5 | 10 to 50 | 50 to 100 | 0.5 to 2.5
6 | O=S(=O)(c1ccc(N2CCNCC2)nc1)N1CCC(Nc2ncc(C(F)(F)F)c(O[C@H]3CCOC3)n2)CC1 [Compound 153] | 2.5 to 10 | < 0.5 | 0.5 to 2.5 | 2.5 to 10 | 100 to 1000 | 0.5 to 2.5
7 | CS(=O)(=O)N1CCC(Nc2ncc(C(F)(F)F)c(NC3CCCC3)n2)CC1 [Example 5, N^4-Cyclopentyl-N^2-(1-(methylsulfonyl)piperidin-4-yl)-5-(trifluoromethyl)pyrimidine-2,4-diamine] | 100 to 1000 | 2.5 to 10 | 10 to 50 | 10 to 50 | 100 to 1000 | 10 to 50
8 | O=S(=O)(c1cnn(CCO)c1)N1CCC(Nc2ncc(C(F)(F)F)c(O[C@H]3CCOC3)n2)CC1 [Example 27] | 2.5 to 10 | < 0.5 | 2.5 to 10 | 10 to 50 | 100 to 1000 | 10 to 50
9 | Cn1cc(S(=O)(=O)N2CCC(Nc3ncc(C#N)c(NC4CCCC4)n3)CC2)cn1 [Compound 31] | 50 to 100 | 0.5 to 2.5 | 2.5 to 10 | 100 to 1000 | 100 to 1000 | 0.5 to 2.5
10 | C[C@@H]1CN(c2ccc(S(=O)(=O)N3CCC(Nc4ncc(C(F)(F)F)c(O[C@H]5CCOC5)n4)CC3)cn2)C[C@H](C)N1 [Example 117] | 2.5 to 10 | < 0.5 | < 0.5 | 2.5 to 10 | 100 to 1000 | 0.5 to 2.5
11 | CN(C)C1CCN(c2ccc(S(=O)(=O)N3CCC(Nc4ncc(C(F)(F)F)c(O[C@H]5CCOC5)n4)CC3)cc2)CC1 [Compound 132] | 2.5 to 10 | < 0.5 | 0.5 to 2.5 | 10 to 50 | 100 to 1000 | 0.5 to 2.5
12 | Cn1cc(-c2ccc(S(=O)(=O)N3CCC(Nc4ncc(C#N)c(N[C@H]5CCOC5)n4)CC3)cc2)cn1 [Example 8, (S)-2-((1-((4-(1-Methyl-1H-pyrazol-4-yl)phenyl)sulfonyl)piperidin-4-yl)amino)-4-((tetrahydrofuran-3-yl)amino)pyrimidine-5-carbonitrile] | 10 to 50 | 0.5 to 2.5 | 2.5 to 10 | 50 to 100 | 100 to 1000 | 0.5 to 2.5

The next lines start with the values.

Row | IC50 [1] [nM] | IC50 [2] [nM] | IC50 [3] [nM] | IC50 [4] [nM] | IC50 [5] [nM] | IC50 [6] [nM] | Compound
13 | 2.5 to 10 | < 0.5 | 0.5 to 2.5 | 2.5 to 10 | 100 to 1000 | 0.5 to 2.5 | O=S(=O)(c1ccc(C2=CCCNC2)cc1)N1CCC(Nc2ncc(C(F)(F)F)c(O[C@H]3CCOC3)n2)CC1 [Example 112, (S)-4-((Tetrahydrofuran-3-yl)oxy)-N-(1-((4-(1,2,5,6-tetrahydropyridin-3-yl)phenyl)sulfonyl)piperidin-4-yl)-5-(trifluoromethyl)pyrimidin-2-amine]
14 | 2.5 to 10 | 0.5 to 2.5 | 0.5 to 2.5 | 10 to 50 | 100 to 1000 | 0.5 to 2.5 | O=S(=O)(c1ccc([C@H]2CCNC2)cc1)N1CCC(Nc2ncc(C(F)(F)F)c(O[C@H]3CCOC3)n2)CC1 (single isomer, unassigned) [Compound 152]
15 | 2.5 to 10 | < 0.5 | 0.5 to 2.5 | 10 to 50 | 100 to 1000 | 0.5 to 2.5 | O=S(=O)(c1ccc(N2CCNCC2)cc1)N1CCC(Nc2ncc(C(F)(F)F)c(O[C@H]3CCOC3)n2)CC1 [Example 116]
16 | 2.5 to 10 | < 0.5 | 0.5 to 2.5 | 2.5 to 10 | 100 to 1000 | 0.5 to 2.5 | O=S(=O)(c1ccc(C2=CCNCC2)cc1)N1CCC(Nc2ncc(C(F)(F)F)c(O[C@H]3CCOC3)n2)CC1 [Example 100, (S)-4-((Tetrahydrofuran-3-yl)oxy)-N-(1-((4-(1,2,3,6-tetrahydropyridin-4-yl)phenyl)sulfonyl)piperidin-4-yl)-5-(trifluoromethyl)pyrimidin-2-amine]
17 | 2.5 to 10 | < 0.5 | 0.5 to 2.5 | 2.5 to 10 | 100 to 1000 | 0.5 to 2.5 | O=S(=O)(c1ccc([C@H]2CCCNC2)cc1)N1CCC(Nc2ncc(C(F)(F)F)c(O[C@H]3CCOC3)n2)CC1 (single isomer, unassigned) [Example 115]
18 | 2.5 to 10 | < 0.5 | 0.5 to 2.5 | 2.5 to 10 | 100 to 1000 | 0.5 to 2.5 | O=S(=O)(c1ccc(C2=CCNC2)cc1)N1CCC(Nc2ncc(C(F)(F)F)c(O[C@H]3CCOC3)n2)CC1 [Compound 146]
19 | 10 to 50 | < 0.5 | 0.5 to 2.5 | 10 to 50 | 100 to 1000 | 0.5 to 2.5 | O=S(=O)(c1ccc(C2CCNCC2)c(F)c1)N1CCC(Nc2ncc(C(F)(F)F)c(O[C@H]3CCOC3)n2)CC1 [Compound 122]
20 | 10 to 50 | 0.5 to 2.5 | 0.5 to 2.5 | 10 to 50 | 100 to 1000 | 0.5 to 2.5 | O=S(=O)(c1ccc([C@@H]2CCNC2)cc1)N1CCC(Nc2ncc(C(F)(F)F)c(O[C@H]3CCOC3)n2)CC1 (single isomer, unassigned) [Compound 151]
21 | 2.5 to 10 | < 0.5 | 0.5 to 2.5 | 2.5 to 10 | 100 to 1000 | 0.5 to 2.5 | O=S(=O)(c1ccc([C@@H]2CCCNC2)cc1)N1CCC(Nc2ncc(C(F)(F)F)c(O[C@H]3CCOC3)n2)CC1 (single isomer, unassigned) [Example 114]
22 | 2.5 to 10 | < 0.5 | 0.5 to 2.5 | 10 to 50 | 50 to 100 | 0.5 to 2.5 | CC1(O)CCN(c2ccc(S(=O)(=O)N3CCC(Nc4ncc(C(F)(F)F)c(O[C@H]5CCOC5)n4)CC3)cc2)CC1 [Compound 133]
23 | 2.5 to 10 | < 0.5 | 0.5 to 2.5 | 10 to 50 | 100 to 1000 | 0.5 to 2.5 | O=S(=O)(c1ccc(N2CC[C@H](O)C2)cc1)N1CCC(Nc2ncc(C(F)(F)F)c(O[C@H]3CCOC3)n2)CC1 [Compound 141]
24 | 2.5 to 10 | < 0.5 | 0.5 to 2.5 | 2.5 to 10 | 100 to 1000 | < 0.5 | C[C@H]1CN(c2ccc(S(=O)(=O)N3CCC(Nc4ncc(C(F)(F)F)c(O[C@H]5CCOC5)n4)CC3)cc2)C[C@H](C)N1 [Example 168]
25 | 2.5 to 10 | < 0.5 | 0.5 to 2.5 | 2.5 to 10 | 100 to 1000 | 0.5 to 2.5 | O=S(=O)(c1ccc(N2CC3(CNC3)C2)cc1)N1CCC(Nc2ncc(C(F)(F)F)c(O[C@H]3CCOC3)n2)CC1 [Compound 144]
26 | 10 to 50 | 0.5 to 2.5 | 0.5 to 2.5 | 10 to 50 | 100 to 1000 | 0.5 to 2.5 | Cc1cc(S(=O)(=O)N2CCC(Nc3ncc(C(F)(F)F)c(O[C@H]4CCOC4)n3)CC2)ccc1C1=CCNCC1 [Compound 154]
27 | 2.5 to 10 | < 0.5 | 0.5 to 2.5 | 2.5 to 10 | 100 to 1000 | 0.5 to 2.5 | O=S(=O)(c1ccc(C2CNC2)cc1)N1CCC(Nc2ncc(C(F)(F)F)c(O[C@H]3CCOC3)n2)CC1 [Compound 131]
28 | 0.5 to 2.5 | < 0.5 | 0.5 to 2.5 | 2.5 to 10 | 10 to 50 | 0.5 to 2.5 | Cn1cc(-c2ccc(S(=O)(=O)N3CCC(Nc4ncc(C(F)(F)F)c(O[C@H]5CCOC5)n4)CC3)cc2)cn1 [Compound 142]
